Patent US7259161B2, “Compositions useful as inhibitors of JAK and other protein kinases” (Vertex Pharmaceuticals Incorporated, priority 2002, dated 2007)

Target: T1, JAK3 (Homo sapiens, UniProt P52333)
T1 sequence (P52333 1-1124): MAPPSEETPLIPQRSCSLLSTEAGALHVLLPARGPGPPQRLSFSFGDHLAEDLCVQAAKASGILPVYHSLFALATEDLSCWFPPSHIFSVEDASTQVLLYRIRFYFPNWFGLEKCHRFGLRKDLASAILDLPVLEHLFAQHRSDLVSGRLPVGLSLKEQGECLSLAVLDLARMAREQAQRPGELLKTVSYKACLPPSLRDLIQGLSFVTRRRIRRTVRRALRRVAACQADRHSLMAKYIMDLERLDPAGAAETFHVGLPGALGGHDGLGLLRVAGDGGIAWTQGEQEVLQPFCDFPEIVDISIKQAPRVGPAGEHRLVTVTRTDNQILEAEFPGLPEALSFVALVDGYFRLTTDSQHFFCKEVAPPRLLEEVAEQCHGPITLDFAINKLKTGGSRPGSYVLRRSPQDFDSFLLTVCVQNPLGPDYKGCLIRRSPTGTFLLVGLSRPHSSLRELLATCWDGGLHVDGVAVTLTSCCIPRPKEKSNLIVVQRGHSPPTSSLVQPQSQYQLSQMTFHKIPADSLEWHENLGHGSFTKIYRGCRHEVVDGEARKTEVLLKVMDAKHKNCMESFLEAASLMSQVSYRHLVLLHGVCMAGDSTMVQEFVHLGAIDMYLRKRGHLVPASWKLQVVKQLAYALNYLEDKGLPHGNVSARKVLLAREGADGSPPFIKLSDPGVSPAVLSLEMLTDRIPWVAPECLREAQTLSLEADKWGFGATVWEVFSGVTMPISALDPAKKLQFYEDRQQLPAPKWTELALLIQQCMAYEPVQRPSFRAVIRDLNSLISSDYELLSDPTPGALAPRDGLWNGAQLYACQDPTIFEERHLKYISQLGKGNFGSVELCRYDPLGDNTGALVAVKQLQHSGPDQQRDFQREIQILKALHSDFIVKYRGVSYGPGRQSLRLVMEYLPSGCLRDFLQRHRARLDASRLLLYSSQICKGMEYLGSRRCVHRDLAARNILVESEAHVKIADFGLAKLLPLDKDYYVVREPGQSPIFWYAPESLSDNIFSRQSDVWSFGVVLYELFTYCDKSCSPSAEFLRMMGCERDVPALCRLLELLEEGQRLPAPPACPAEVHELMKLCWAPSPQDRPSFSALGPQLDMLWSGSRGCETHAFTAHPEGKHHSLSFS
Test: JAK3 inhibition assay
Type: biochemical
Conditions: 2 μM ATP, ELISA read at 450 nm
Procedure: Compounds were screened for their ability to inhibit JAK3 according to the method described by G. R. Brown, et al, Bioorg. Med. Chem. Lett. 2000, vol. 10, pp 575–579 in the following manner. Into Maxisorb plates, previously coated at 4° C. with Poly (Glu, Ala, Tyr) 6:3:1 then washed with phosphate buffered saline 0.05% and Tween (PBST), was added 2 μM ATP, 5 MM MgCl2, and a solution of compound in DMSO. The reaction was started with JAK enzyme and the plates incubated for 60 minutes at 30° C. The plates were then washed with PBST, 100 μL HRP-Conjugated 4G10 antibody was added, and the plate incubated for 90 minutes at 30° C. The plate was again washed with PBST, 100 μL TMB solution is added, and the plates were incubated for another 30 minutes at 30° C. Sulfuric acid (100 μL of 1M) was added to stop the reaction and the plate is read at 450 nm to obtain the optical densities for analysis to determine Ki values.

## NS(=O)(=O)c1ccc(Nc2nccc(-c3ccc4c(c3)NC(=O)CO4)n2)cc1 [IVa-23]
  Ki: < 5 µM

## CN1C(=O)COc2ccc(-c3ccnc(Nc4ccc(S(N)(=O)=O)cc4)n3)cc21 [IVa-24]
  Ki: < 5 µM
